Legend:
[1] = tested on: ZEAMX; assay: Post-emergence herbicidal effect and crop plant compatibility, greenhouse pot test; assay type: in vivo, Zea mays; settings: one-leaf stage, rated visually after about 3 weeks vs untreated controls; for plant injury at 20 g/ha: Zea mays, 504 h, read-out: Post-emergence effect at 20 g/ha against ZEAMX in %
Outline: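 Visual % activity scored roughly 3 weeks post-spray against untreated plants, where 100% means death and 0% equals control. Plants were treated at the one-leaf stage, 2 to 3 weeks after sowing in sandy loam, at 20 to 320 g/ha.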

[2] = tested on: TRZAS; assay: as above; assay type: in vivo, Triticum aestivum; settings: for Post-emergence effect at 20 g/ha against TRZAS in % / percent crop injury (phytotoxicity) to wheat, post-emergence at 20 g/ha: one-leaf stage, rated visually after about 3 weeks vs untreated controls; for percent crop injury (phytotoxicity) to wheat, post-emergence at 20 g/ha: Triticum aestivum, 504 h, read-out: Post-emergence effect at 20 g/ha against TRZAS in %
Source text: • ALOMY: Alopecurus myosuroides SETVI: Setaria viridis • AVEFA: Avena fatua POLCO: Fallopia convolvulus • AMARE: Amaranthus retroflexus ECHCG: Echinochloa crus-galli • LOLRJ: Lolium rigidum STEME: Stellaria media • VERPE: Veronica persica MATIN: Tripleurospermum inodorum • DIGSA: Digitaria sanguinalis ABUTH: Abutylon threophrasti • TRZAS: Triticum aestivum VIOTR: Viola tricolor • BRSNW: Brassica napus ZEAMX: Zea mays • PHBPU: Ipomoea purpurea GLXMA: Glycine max • ORYSA: Oryza sativa HORMU: Hordeum murinum
Seeds of monocotyledonous and dicotyledonous weeds and crop plants are placed in sandy loam in plastic or organic planting pots, covered with soil and cultivated in a greenhouse under controlled growth conditions. 2 to 3 weeks after sowing, the trial plants are treated at the one-leaf stage. The compounds of the invention, formulated in the form of wettable powders (WP) or as emulsion concentrates (EC), are then sprayed onto the green parts of the plants as aqueous suspension or emulsion with addition of 0.5% additive at a water application rate of 600 l/ha (converted). After the test plants have been kept in the greenhouse under optimum growth conditions for about 3 weeks, the activity of the preparations is rated visually in comparison to untreated controls. For example, 100% activity=the plants have died, 0% activity=like control plants.
Tables 20a to 38c below show the effects/crop compatibilities of selected compounds of the general formula (I) on various harmful plants at an application rate corresponding to 20 to 320 g/ha, which were obtained by the trial procedure specified above.

[3] = tested on: ABUTH; assay: Post-emergence herbicidal effect, greenhouse pot test; assay type: in vivo, Abutilon theophrasti; settings: visual rating about 3 weeks after treatment
Outline: (§1)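 Greenhouse pot plants in sandy loam receive a one-leaf-stage spray at 20 to 320 g/ha. Activity is assessed visually around 3 weeks afterwards on a 0–100% scale, where 100% means the plants have died.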

[4] = tested on: ALOMY; assay: as above; assay type: in vivo, Alopecurus myosuroides; settings: 320 g/ha, visual rating about 3 weeks after treatment; for pest or weed control at 320 g/ha: Alopecurus myosuroides, 504 h, read-out: Post-emergence effect against ALOMY
Outline: as §1

[5] = tested on: AMARE; assay: as above; assay type: in vivo, Amaranthus retroflexus; settings: visual rating about 3 weeks after treatment
Outline: as §1

[6] = tested on: AVEFA; assay: as above; assay type: in vivo, Avena fatua; settings: 320 g/ha, visual rating about 3 weeks after treatment; for pest or weed control at 320 g/ha: Avena fatua, 504 h, read-out: Post-emergence effect against AVEFA
Outline: as §1

[7] = tested on: DIGSA; assay: as above; assay type: in vivo, Digitaria sanguinalis; settings: visual rating about 3 weeks after treatment; for Post-emergence effect against DIGSA / pest or weed control at 320 g/ha: 320 g/ha
Outline: as §1

[8] = tested on: ECHCG; assay: as above; assay type: in vivo, Echinochloa crus-galli; settings: for Post-emergence effect against ECHCG: 20 g/ha, visual rating about 3 weeks after treatment
Outline: as §1

[9] = tested on: MATIN; assay: as above; assay type: in vivo, Tripleurospermum inodorum; settings: for pest or weed control at 320 g/ha: Tripleurospermum inodorum, 504 h, read-out: Post-emergence effect against MATIN in %
Outline: as §1

[10] = tested on: PHBPU; assay: as above; assay type: in vivo, Ipomoea purpurea; settings: for pest or weed control at 80 g/ha / pest or weed control at 320 g/ha: Ipomoea purpurea, 504 h, read-out: Post-emergence effect against PHBPU in %
Outline: as §1

[11] = tested on: POLCO; assay: as above; assay type: in vivo, Fallopia convolvulus
Outline: as §1

[12] = tested on: SETVI; assay: as above; assay type: in vivo, Setaria viridis
Outline: as §1

[13] = tested on: VERPE; assay: as above; assay type: in vivo, Veronica persica; settings: for pest or weed control at 80 g/ha / pest or weed control at 320 g/ha: Veronica persica, 504 h, read-out: Post-emergence effect against VERPE in %
Outline: as §1

[14] = tested on: VIOTR; assay: as above; assay type: in vivo, Viola tricolor; settings: for pest or weed control at 80 g/ha / pest or weed control at 320 g/ha: Viola tricolor, 504 h, read-out: Post-emergence effect against VIOTR in %
Outline: as §1

[15] = tested on: KCHSC; assay: as above; assay type: in vivo; settings: 320 g/ha
Outline: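 Visual rating of activity against untreated plants (100% = plants died, 0% = no effect), done about 3 weeks after treatment. Compounds applied at 20–320 g/ha as aqueous spray (600 l/ha, 0.5% additive) from WP or EC formulations onto one-leaf-stage plants grown in sandy loam under greenhouse conditions.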

[16] = tested on: LOLRI; assay: as above; assay type: in vivo, Lolium rigidum; settings: 320 g/ha; for pest or weed control at 320 g/ha: Lolium rigidum, 504 h, read-out: Post-emergence effect against LOLRI in %
Outline: as §1

[17] = Abutilon theophrasti, 504 h, 320 g/ha, read-out: Post-emergence effect against ABUTH
[18] = Digitaria sanguinalis, 504 h, read-out: Post-emergence effect against DIGSA
[19] = Echinochloa crus-galli, 504 h, 320 g/ha, read-out: Post-emergence effect against ECHCG in %
[20] = Setaria viridis, 504 h, 320 g/ha, read-out: Post-emergence effect against SETVI in %
[21] = Amaranthus retroflexus, 504 h, 320 g/ha, read-out: Post-emergence effect against AMARE

SMILES	Post-emergence effect at 20 g/ha against ZEAMX in % [1]	Post-emergence effect at 20 g/ha against TRZAS in % [2]	Post-emergence effect against ABUTH ([3]; 320 g/ha)	Post-emergence effect against ALOMY [4]	Post-emergence effect against AMARE ([5]; 320 g/ha)	Post-emergence effect against AVEFA [6]	Post-emergence effect against DIGSA [7]	Post-emergence effect against ECHCG [8]	Post-emergence effect against ECHCG in % ([8]; 80 g/ha)	Post-emergence effect against ECHCG in % ([8]; 320 g/ha)	Post-emergence effect against MATIN in % ([9]; 80 g/ha)	Post-emergence effect against MATIN in % ([9]; 320 g/ha)	Post-emergence effect against PHBPU in % ([10]; 320 g/ha)	Post-emergence effect against SETVI in % ([12]; 320 g/ha)	pest or weed control at 320 g/ha [3, 17]	pest or weed control at 320 g/ha [8, 19]	pest or weed control at 320 g/ha ([10]; 320 g/ha)	pest or weed control at 320 g/ha [12, 20]	pest or weed control at 320 g/ha ([13]; 320 g/ha)	pest or weed control at 320 g/ha ([14]; 320 g/ha)	also measured
CCOC(Oc1nn(-c2ccccc2F)c(-c2ccc(F)nc2)c1Cl)C(=O)OCC(C)C(=O)OC (racemic) [Example I-54]	0%	0%	80%	100%	80%	90%	90%	80%	90%	90%	90%	90%	90%	90%							Post-emergence effect against MATIN in % ([9]; 20 g/ha): 80%; Post-emergence effect against PHBPU in % ([10]; 80 g/ha): 90%; Post-emergence effect against POLCO in % ([11]; 80 g/ha): 80%; Post-emergence effect against POLCO in % ([11]; 320 g/ha): 80%; Post-emergence effect against SETVI in % ([12]; 80 g/ha): 80%; Post-emergence effect against VERPE in % ([13]; 20 g/ha): 80%; Post-emergence effect against VERPE in % ([13]; 80 g/ha): 80%; Post-emergence effect against VERPE in % ([13]; 320 g/ha): 90%; Post-emergence effect against VIOTR in % ([14]; 80 g/ha): 80%; Post-emergence effect against VIOTR in % ([14]; 320 g/ha): 80%; Post-emergence effect against KCHSC in % [15]: 80%
CCOC(Oc1nn(-c2ccccc2F)c(-c2ccc(F)nc2)c1Br)C(=O)OCCC(=O)OC (single isomer, unassigned) [Example I-59, Methyl 3-{[(2RS)-2-{[4-bromo-1-(2-fluorophenyl)-5-(6-fluoropyridin-3-yl)-1H-pyrazol-3-yl]oxy}-2-ethoxyethanoyl]oxy}propanoate]															90%	90%	90%	90%	80%	90%	plant injury at 20 g/ha [1]: 20%; percent crop injury (phytotoxicity) to wheat, post-emergence at 20 g/ha [2]: 0%; pest or weed control at 80 g/ha ([3]; Abutilon theophrasti, 504 h, 80 g/ha, read-out: Post-emergence effect against ABUTH): 90%; pest or weed control at 320 g/ha [4]: 90%; pest or weed control at 320 g/ha [6]: 80%; pest or weed control at 80 g/ha ([7]; Digitaria sanguinalis, 504 h, 80 g/ha, read-out: Post-emergence effect against DIGSA): 80%; pest or weed control at 320 g/ha [7, 18]: 90%; pest or weed control at 80 g/ha ([8]; Echinochloa crus-galli, 504 h, 80 g/ha, read-out: Post-emergence effect against ECHCG in %): 90%; pest or weed control at 320 g/ha ([9]; 320 g/ha): 80%; pest or weed control at 80 g/ha ([10]; 80 g/ha): 90%; pest or weed control at 80 g/ha ([12]; Setaria viridis, 504 h, 80 g/ha, read-out: Post-emergence effect against SETVI in %): 80%; pest or weed control at 80 g/ha ([13]; 80 g/ha): 80%; pest or weed control at 80 g/ha ([14]; 80 g/ha): 90%; pest or weed control at 320 g/ha ([15]; 504 h, read-out: Post-emergence effect against KCHSC in %): 80%
COC(=O)CCOC(=O)C(OC)Oc1nn(-c2ncccc2F)c(-c2ccc(F)nc2)c1C1CC1 (single isomer, unassigned) [Example I-81]	0%	0%	90%	90%	80%	90%	80%			90%			80%	90%							Post-emergence effect at 80 g/ha against ZEAMX in % ([1]; 80 g/ha): 0%; Post-emergence effect against POLCO in % ([11]; 320 g/ha): 90%; Post-emergence effect against KCHSC in % [15]: 90%
COC(Oc1nn(-c2ccccc2F)c(-c2ccc(F)nc2)c1Br)C(=O)O (centres unmarked) [Example I-25]	20%	10%													80%	80%	90%	90%	90%	80%	pest or weed control at 80 g/ha ([5]; Amaranthus retroflexus, 504 h, 80 g/ha, read-out: Post-emergence effect against AMARE): 80%; pest or weed control at 320 g/ha [5, 21]: 90%; pest or weed control at 320 g/ha [7, 18]: 90%; pest or weed control at 320 g/ha [16]: 90%; pest or weed control at 320 g/ha ([9]; 320 g/ha): 80%; pest or weed control at 80 g/ha ([13]; 80 g/ha): 80%
COC(=O)C(OC)Oc1nn(-c2ncccc2F)c(-c2ccc(F)nc2)c1I (centres unmarked) [Example I-39]															90%	90%	90%	90%	90%	90%	plant injury at 20 g/ha [1]: 20%; percent crop injury (phytotoxicity) to wheat, post-emergence at 20 g/ha [2]: 0%; pest or weed control at 320 g/ha [4]: 100%; pest or weed control at 320 g/ha [5, 21]: 80%; pest or weed control at 320 g/ha [6]: 100%; pest or weed control at 320 g/ha [16]: 100%; pest or weed control at 80 g/ha ([10]; 80 g/ha): 90%; pest or weed control at 80 g/ha ([11]; Fallopia convolvulus, 504 h, 80 g/ha, read-out: Post-emergence effect against POLCO in %): 90%; pest or weed control at 320 g/ha ([11]; Fallopia convolvulus, 504 h, 320 g/ha, read-out: Post-emergence effect against POLCO in %): 90%; pest or weed control at 80 g/ha ([14]; 80 g/ha): 80%
COC(=O)C(OC)Oc1nn(-c2cccc(C)c2F)c(-c2ccc(F)nc2)c1Br (centres unmarked) [Example I-114]		0%	90%		90%	80%	80%	80%	90%	100%	80%	90%	90%	90%							Post-emergence effect against TRZAS ([2]; 80 g/ha, visual rating about 3 weeks after treatment, crop plant): 20%; Post-emergence effect against ABUTH ([3]; 80 g/ha): 80%; Post-emergence effect against AMARE ([5]; 20 g/ha): 80%; Post-emergence effect against AMARE ([5]; 80 g/ha): 80%; Post-emergence effect against LOLRI in % [16]: 80%; Post-emergence effect against PHBPU in % ([10]; 80 g/ha): 80%; Post-emergence effect against VERPE in % ([13]; 20 g/ha): 80%; Post-emergence effect against VERPE in % ([13]; 80 g/ha): 80%; Post-emergence effect against VERPE in % ([13]; 320 g/ha): 90%; Post-emergence effect against VIOTR in % ([14]; 320 g/ha): 90%

— patent US20240391862A1, “(1,4,5-TRISUBSTITUTED-1H-PYRAZOL-3-YL)OXY-2-ALKOXY ALKYL ACIDS AND THEIR DERIVATIVES, THEIR SALTS AND THEIR USE AS HERBICIDAL AGENTS” (Bayer AKtiengesellschaft, priority 2021, published 2024)
